Test results from patent US20230092001A1, “FURANEOL GLYCOSIDE COMPOUND, PHARMACEUTICAL COMPOSITION THEREOF, PREPARATION METHOD THEREFOR, AND APPLICATION THEREOF” (priority 2019, published 2023).

System: ulcerative colitis model (dextran sodium sulphate)
Assay: Effect example 2: therapeutic effect on ulcerative colitis, dextran sodium sulphate model, oral gavage, 14 days
Assay type: in vivo, C57 mice
Conditions: for Average colon length of mice: day 14; for Weight effect compared with the positive control drug SASP (in words): 40 mg/kg oral gavage vs SASP 30 mg/kg oral gavage; for Effect on the reduction of weight in mice (in words): 40 mg/kg oral gavage, vs ulcerative colitis model group
Procedure: Thirty-five 10-week-old male C57 mice, SPF class animal house, temperature 20-26° C., humidity 40%-70%, alternating light-dark periods (12 h/12 h).
Quarantine-qualified animals with similar weights were selected for the experiment.
Mice in the blank control group were given normal drinking water throughout the experiment. The other 6 groups of mice were given drinking water containing 2% dextran sodium sulphate from day 1 to day 5, normal drinking water from day 6 to day 7, drinking water containing 2% dextran sodium sulphate from day 8 to day 12, and normal drinking water from day 13 to day 14. The experiment ended on day 14. All groups were administered by oral gavage once a day according to table 7, until the end of the experiment on day 14.
(1) The mice were weighed daily.
(2) Blood samples were collected from the orbital vein on day 14 and stored at −80° C.
(3) On day 14, the mice were sacrificed by cervical vertebra dislocation, the colon was removed and a small amount of fecal was taken from the colon and left as a sample. The colon length and colon weight were measured. A portion of the colon and the fecal sample was stored at −80° C.

[1] = Day 1, treatment group 40 mg/kg oral gavage
[2] = Day 2, treatment group 40 mg/kg oral gavage
[3] = Day 3, treatment group 40 mg/kg oral gavage
[4] = Day 4, treatment group 40 mg/kg oral gavage
[5] = Day 5, treatment group 40 mg/kg oral gavage
[6] = Day 6, treatment group 40 mg/kg oral gavage
[7] = Day 7, treatment group 40 mg/kg oral gavage
[8] = Day 8, treatment group 40 mg/kg oral gavage
[9] = Day 9, treatment group 40 mg/kg oral gavage
[10] = Day 10, treatment group 40 mg/kg oral gavage
[11] = Day 11, treatment group 40 mg/kg oral gavage
[12] = Day 12, treatment group 40 mg/kg oral gavage
[13] = Day 13, treatment group 40 mg/kg oral gavage
[14] = Day 14, treatment group 40 mg/kg oral gavage
[15] = treatment group 40 mg/kg oral gavage

| SMILES | Weight effect compared with the positive control drug SASP (in words) | Effect on the reduction of weight in mice (in words) | Average weight of mice [1] | Average weight of mice [2] | Average weight of mice [3] | Average weight of mice [4] | Average weight of mice [5] | Average weight of mice [6] | Average weight of mice [7] | Average weight of mice [8] | Average weight of mice [9] | Average weight of mice [10] | Average weight of mice [11] | Average weight of mice [12] | Average weight of mice [13] | Average weight of mice [14] | Average colon length of mice [15] | other results |
| --- | --- | --- | --- | --- | --- | --- | --- | --- | --- | --- | --- | --- | --- | --- | --- | --- | --- | --- |
| O=C(O)c1cc(/N=N/c2ccc(S(=O)(=O)Nc3ccccn3)cc2)ccc1O [SASP, salazosulfapyridine, reference compound] |  |  |  |  |  |  |  |  |  |  |  |  |  |  |  |  |  | Average weight of mice (Day 1, positive control group 30 mg/kg oral gavage): 26.8 g; Average weight of mice (Day 2, positive control group 30 mg/kg oral gavage): 26.86 g; Average weight of mice (Day 3, positive control group 30 mg/kg oral gavage): 26.82 g; Average weight of mice (Day 4, positive control group 30 mg/kg oral gavage): 26.8 g; Average weight of mice (Day 5, positive control group 30 mg/kg oral gavage): 26.52 g; Average weight of mice (Day 6, positive control group 30 mg/kg oral gavage): 25.74 g; Average weight of mice (Day 7, positive control group 30 mg/kg oral gavage): 24.38 g; Average weight of mice (Day 8, positive control group 30 mg/kg oral gavage): 22.92 g; Average weight of mice (Day 9, positive control group 30 mg/kg oral gavage): 22.3 g; Average weight of mice (Day 10, positive control group 30 mg/kg oral gavage): 22.34 g; Average weight of mice (Day 11, positive control group 30 mg/kg oral gavage): 22.68 g; Average weight of mice (Day 12, positive control group 30 mg/kg oral gavage): 23.14 g; Average weight of mice (Day 13, positive control group 30 mg/kg oral gavage): 23.52 g; Average weight of mice (Day 14, positive control group 30 mg/kg oral gavage): 23.52 g; Average colon length of mice (positive control group 30 mg/kg oral gavage): 6.0 cm |
| CC(C)=C1OC(C)=C(O[C@@H]2O[C@H](COC(=O)C(C)(C)C)[C@@H](OC(=O)C(C)(C)C)[C@H](OC(=O)C(C)(C)C)[C@H]2OC(=O)C(C)(C)C)C1=O [Compound I-6] | better than the positive control drug | significant improvement in the reduction of weight in mice | 26.9 g | 26.94 g | 26.9 g | 26.9 g | 26.64 g | 26.2 g | 24.52 g | 24.38 g | 24.42 g | 24.42 g | 24.66 g | 24.94 g | 24.72 g | 24.5 g | 5.9 cm |  |
| CC(=O)OC[C@H]1O[C@@H](OC2=C(C)OC(=C(C)C)C2=O)[C@H](OC(C)=O)[C@@H](OC(C)=O)[C@H]1OC(C)=O [Compound I-4, 4-O-[(2,3,4,6-tetra-O-acetyl)-β-D-galactosyl]-5-methyl-2-(1-methylethylidene)-3(2H)-furanone] | better than the positive control drug | significant improvement in the reduction of weight in mice | 26.72 g | 26.76 g | 26.72 g | 26.72 g | 26.44 g | 26.36 g | 24.82 g | 23.44 g | 23.3 g | 23.3 g | 24.02 g | 24.14 g | 24.5 g | 24.68 g | 6.2 cm |  |
